Test results reported in US20230346827A1 (priority 2020, published 2023).

Tested on: rats subjected to sTBI
Assay: sTBI rats, LMW-DS 1, 5, 15 mg/kg s.c. 30 min post-TBI: HPLC of brain energy metabolites, antioxidants, oxidative/nitrosative stress biomarkers (Example 4)
Format: in vivo, rat
Protocol: Male Wistar rats (n=160) of 300-350 g body weight were used in this study. They were fed with standard laboratory diet and water ad libitum in a controlled environment.
As the accepted anesthetic mixture, animals received 35 mg/kg b.w. ketamine and 0.25 mg/kg body weight midazolam by intramuscular injection. Diffuse sTBI was induced according to the “weight drop” impact acceleration model set up by Marmarou et al. J. Neurosurg. 1994, 80: 291-300. This model causes diffuse axonal injury and it is able to reproduce the physical and mechanical characteristics of the diffuse TBI in humans.
Severe TBI was induced by dropping a 450 g weight from 2 meters height onto the rat head protected by a helmet (metal disk previously fixed on the skull using dental cement) in order to uniformly distribute the mechanical force to the brain. Rats were placed prone on a bed of specific polyurethane foam inserted in a special container; this foam dissipates the major part of the potential energy (deriving from the mechanical forces) and prevents any rebound of the animal after the impact that could produce spinal damages.
After 2 or 7 days from TBI induction, rats were anesthetized again and then immediately sacrificed. These time points are coincident with the worst biochemical derangement (2 days) or, in the case of a mildly injured brain, with a full metabolic recovery (7 days).
The drug treatment consisted in a subcutaneous injection of 0.5 ml of LMW-DS (ILB®, Tikomed, Viken, Sweden, WO 2016/076780) and administered at 3 different concentrations (1, 5 and 15 mg/kg body weight), according to the schematic protocol described below. Sham-operated animals underwent the same procedure of anesthesia but TBI and were used as the control group.
Rats subjected to sTBI and receiving a single administration of LMW-DS after 30 minutes post-TBI, with sacrifice at 2 days post-TBI. Animals were divided in the following subgroups: • 1. 12 animals subjected to sTBI and treated with 1 mg/kg b.w. LMW-DS • 2. 12 animals subjected to sTBI and treated with 5 mg/kg b.w. LMW-DS • 3. 12 animals subjected to sTBI and treated with 15 mg/kg b.w. LMW-DS
Rats subjected to sTBI and receiving a single administration of LMW-DS after 30 minutes post-TBI, with sacrifice at 7 days post-TBI. Animals were divided in the following subgroups: • 1. 12 animals subjected to sTBI and treated with 1 mg/kg b.w. LMW-DS • 2. 12 animals subjected to sTBI and treated with 5 mg/kg b.w. LMW-DS • 3. 12 animals subjected to sTBI and treated with 15 mg/kg b.w. LMW-DS
Rats (n = 12) subjected to sTBI and receiving repeated administrations of the maximal dose of LMW-DS (15 mg/kg b.w.) after 30 minutes, 3 days and 5 days post-TBI, with sacrifice at 7 days post-TBI. Four additional rats were used for the histo-morphological studies. Total rats in this group: n=16
To minimize metabolite loss, an in vivo craniectomy was performed in all animals during anesthesia. The rat skull was carefully removed, the brain was exposed, sharply cut along the sagittal fissure and the two hemispheres were separated. The hemispheres dedicated to biochemical analyses were freeze-clamped by aluminum tongues pre-cooled in liquid nitrogen and then immersed in liquid nitrogen. The freeze-clamping procedure was introduced to accelerate freezing of the tissue, thus minimizing potential metabolite loss.
Tissue homogenization for metabolite analyses was effected as described below. After the wet weight (w.w.) determination, the frozen hemispheres were placed into 7 ml of ice-cold, nitrogen-saturated, precipitating solution (1:10 w/v) composed by CH3CN + 10 mM KH2PO4, pH 7.40, (3:1; v:v), and the homogenization was performed using an Ultra-Turrax homogenizer set at 24,000 rpm/min (Janke & Kunkel, Staufen, Germany). […]

[1] = 1 mg/kg, 7 d post-sTBI, adimensional ratio

sodium salt of dextran sulfate [LMW-DS]
UDP-Glc (1 mg/kg, 7 d post-sTBI): 63.19 ± 12.84 nmol/g w.w. | UDP-GlcNac (1 mg/kg, 7 d post-sTBI): 85.36 ± 29.53 nmol/g w.w. | UMP (1 mg/kg, 7 d post-sTBI): 103.06 ± 19.96 nmol/g w.w. | URACIL (1 mg/kg, 7 d post-sTBI): 14.78 ± 3.04 nmol/g w.w. | URIC ACID (1 mg/kg, 7 d post-sTBI): 7.13 ± 1.70 nmol/g w.w. | URIDINE (1 mg/kg, 7 d post-sTBI): 110.17 ± 26.11 nmol/g w.w. | UTP (1 mg/kg, 7 d post-sTBI): 179.75 ± 31.48 nmol/g w.w. | XANTHINE (1 mg/kg, 7 d post-sTBI): 12.53 ± 3.54 nmol/g w.w. | β-PSEUDOURIDINE (1 mg/kg, 7 d post-sTBI): 14.00 ± 2.60 nmol/g w.w. | ATP/ADP [1]: 6.12 ± 0.78 | NAD+/NADH [1]: 33.91 ± 9.32 | ADENOSINE (5 mg/kg, 2 d post-sTBI): 92.58 ± 22.16 nmol/g w.w. | ADP (5 mg/kg, 2 d post-sTBI): 364.92 ± 31.39 nmol/g w.w. | ADP-Ribose (5 mg/kg, 2 d post-sTBI): 21.65 ± 4.35 nmol/g w.w. | AMP (5 mg/kg, 2 d post-sTBI): 67.03 ± 11.85 nmol/g w.w. | ASCORBIC ACID (5 mg/kg, 2 d post-sTBI): 2626.68 ± 151.17 nmol/g w.w. | ATP (5 mg/kg, 2 d post-sTBI): 1683.87 ± 98.66 nmol/g w.w. | Acetyl-CoA (5 mg/kg, 2 d post-sTBI): 34.85 ± 4.05 nmol/g w.w. | CDP choline (5 mg/kg, 2 d post-sTBI): 5.16 ± 0.77 nmol/g w.w. | CMP (5 mg/kg, 2 d post-sTBI): 28.94 ± 5.91 nmol/g w.w. | CREATININE (5 mg/kg, 2 d post-sTBI): 10.22 ± 1.90 nmol/g w.w. | CTP (5 mg/kg, 2 d post-sTBI): 37.72 ± 7.63 nmol/g w.w. | CYTIDINE (5 mg/kg, 2 d post-sTBI): 7.47 ± 1.35 nmol/g w.w. | CYTOSINE (5 mg/kg, 2 d post-sTBI): 13.65 ± 1.67 nmol/g w.w. | CoA-SH (5 mg/kg, 2 d post-sTBI): 7.46 ± 0.82 nmol/g w.w. | GDP (5 mg/kg, 2 d post-sTBI): 183.27 ± 25.32 nmol/g w.w. | GDP Glucose (5 mg/kg, 2 d post-sTBI): 83.81 ± 37.35 nmol/g w.w. | GMP (5 mg/kg, 2 d post-sTBI): 167.44 ± 8.47 nmol/g w.w. | GSH (5 mg/kg, 2 d post-sTBI): 2067.79 ± 301.54 nmol/g w.w. | GTP (5 mg/kg, 2 d post-sTBI): 180.01 ± 18.99 nmol/g w.w. | GUANINE (5 mg/kg, 2 d post-sTBI): 1.68 ± 0.42 nmol/g w.w. | GUANOSINE (5 mg/kg, 2 d post-sTBI): 30.97 ± 5.15 nmol/g w.w. | HYPOXANTHINE (5 mg/kg, 2 d post-sTBI): 4.18 ± 0.68 nmol/g w.w. | IMP (5 mg/kg, 2 d post-sTBI): 33.19 ± 6.25 nmol/g w.w. | INOSINE (5 mg/kg, 2 d post-sTBI): 114.89 ± 14.98 nmol/g w.w. | MDA (5 mg/kg, 2 d post-sTBI): 32.73 ± 5.33 nmol/g w.w. | Malonyl-CoA (5 mg/kg, 2 d post-sTBI): 35.58 ± 7.54 nmol/g w.w. | NADH (5 mg/kg, 2 d post-sTBI): 10.37 ± 1.19 nmol/g w.w. | NADPH (5 mg/kg, 2 d post-sTBI): 37.48 ± 3.11 nmol/g w.w. | NADP^+ (5 mg/kg, 2 d post-sTBI): 11.86 ± 2.71 nmol/g w.w. | NAD^+ (5 mg/kg, 2 d post-sTBI): 376.85 ± 64.15 nmol/g w.w. | NO2 (5 mg/kg, 2 d post-sTBI): 218.12 ± 26.28 nmol/g w.w. | NO3 (5 mg/kg, 2 d post-sTBI): 148.41 ± 32.30 nmol/g w.w. | UDP (5 mg/kg, 2 d post-sTBI): 70.93 ± 7.27 nmol/g w.w. | UDP-Gal (5 mg/kg, 2 d post-sTBI): 116.42 ± 9.72 nmol/g w.w. | UDP-GalNac (5 mg/kg, 2 d post-sTBI): 20.75 ± 3.06 nmol/g w.w. | UDP-Glc (5 mg/kg, 2 d post-sTBI): 28.60 ± 4.23 nmol/g w.w. | UDP-GlcNac (5 mg/kg, 2 d post-sTBI): 140.58 ± 12.80 nmol/g w.w. | UMP (5 mg/kg, 2 d post-sTBI): 97.98 ± 13.53 nmol/g w.w. | URACIL (5 mg/kg, 2 d post-sTBI): 17.83 ± 3.48 nmol/g w.w. | URIC ACID (5 mg/kg, 2 d post-sTBI): 11.22 ± 2.30 nmol/g w.w. | URIDINE (5 mg/kg, 2 d post-sTBI): 117.21 ± 20.64 nmol/g w.w. | UTP (5 mg/kg, 2 d post-sTBI): 142.82 ± 22.43 nmol/g w.w. | XANTHINE (5 mg/kg, 2 d post-sTBI): 6.71 ± 0.70 nmol/g w.w. | β-PSEUDOURIDINE (5 mg/kg, 2 d post-sTBI): 10.41 ± 2.09 nmol/g w.w. | NAD^+/NADH (5 mg/kg, 2 d post-sTBI, adimensional ratio): 36.61 ± 6.09 | ADENOSINE (5 mg/kg, 7 d post-sTBI): 22.24 ± 16.47 nmol/g w.w. | ADP (5 mg/kg, 7 d post-sTBI): 289.27 ± 38.52 nmol/g w.w. | ADP-Ribose (5 mg/kg, 7 d post-sTBI): 6.76 ± 1.70 nmol/g w.w. | AMP (5 mg/kg, 7 d post-sTBI): 59.50 ± 4.68 nmol/g w.w. | ASCORBIC ACID (5 mg/kg, 7 d post-sTBI): 2195.87 ± 264.45 nmol/g w.w. | ATP (5 mg/kg, 7 d post-sTBI): 1730.92 ± 139.24 nmol/g w.w. | Acetyl-CoA (5 mg/kg, 7 d post-sTBI): 22.87 ± 3.89 nmol/g w.w. | CDP choline (5 mg/kg, 7 d post-sTBI): 10.37 ± 3.33 nmol/g w.w. | CMP (5 mg/kg, 7 d post-sTBI): 55.67 ± 22.97 nmol/g w.w. | CREATININE (5 mg/kg, 7 d post-sTBI): 5.48 ± 0.97 nmol/g w.w. | CTP (5 mg/kg, 7 d post-sTBI): 79.08 ± 14.54 nmol/g w.w. | CYTIDINE (5 mg/kg, 7 d post-sTBI): 26.51 ± 9.33 nmol/g w.w. | CYTOSINE (5 mg/kg, 7 d post-sTBI): 12.67 ± 2.72 nmol/g w.w. | CoA-SH (5 mg/kg, 7 d post-sTBI): 51.86 ± 6.66 nmol/g w.w. | GDP (5 mg/kg, 7 d post-sTBI): 126.82 ± 14.49 nmol/g w.w. | GDP Glucose (5 mg/kg, 7 d post-sTBI): 104.76 ± 12.25 nmol/g w.w. | GMP (5 mg/kg, 7 d post-sTBI): 101.42 ± 48.00 nmol/g w.w. | GSH (5 mg/kg, 7 d post-sTBI): 2412.17 ± 317.97 nmol/g w.w. | GTP (5 mg/kg, 7 d post-sTBI): 453.86 ± 41.27 nmol/g w.w. | GUANINE (5 mg/kg, 7 d post-sTBI): 7.92 ± 3.37 nmol/g w.w. | GUANOSINE (5 mg/kg, 7 d post-sTBI): 33.42± 6.96 nmol/g w.w. | HYPOXANTHINE (5 mg/kg, 7 d post-sTBI): 13.45 ± 3.91 nmol/g w.w. | IMP (5 mg/kg, 7 d post-sTBI): 68.72 ± 17.60 nmol/g w.w. | INOSINE (5 mg/kg, 7 d post-sTBI): 196.61 ± 22.06 nmol/g w.w. | MDA (5 mg/kg, 7 d post-sTBI): 17.78 ± 2.94 nmol/g w.w.
